Data published in publication PMC8869984, “Multifunctional Silver(I) Complexes with Metronidazole Drug Reveal Antimicrobial Properties and Antitumor Activity against Human Hepatoma and Colorectal Adenocarcinoma Cells” (Cancers, 2022).

Experiments:
F. nucleatum ATCC 25586 = test: micro-dilution broth method (MIC, MBC); type: cell-based, Fusobacterium nucleatum
HepG2 cells [1] = test: TPC assay (total protein content), 72 h exposure; type: cell-based, human; conditions: Figure 6
Procedure: (§1) The human hepatoma (HepG2) and colorectal adenocarcinoma (Caco-2) cells were purchased from the American Type Culture Collection: ATCC HB-8065 and ATCC HTB-37, respectively. These cells were cultured in Minimum Essential Medium Eagle (MEME) (ATCC). The murine fibroblasts cell line (Balb/c 3T3 clone A31) (gift from the Department of Swine Diseases of the National Veterinary Research Institute in Pulawy) was cultured in Dulbecco’s Modified Eagle Medium (DMEM) (ATCC). The media were supplemented with 10% BCS (Balb/c 3T3), 10% FBS (HepG2), 20% FBS (Caco-2), 1% L-glutamine, 1% antibiotic solution. The cells were maintained in 75 cm^2 cell culture flasks (NUNC) in a humidified incubator at 37 °C in an atmosphere of 5% CO2. The medium was refreshed every two or three days, and the cells were trypsinized by 0.25% trypsin–0.02% EDTA after reaching 70–80% confluence. Single cell suspensions were prepared and adjusted to a density of 2 × 10^5 cell/mL^−1 (HepG2), 1 × 10^5 cell/mL^−1 (Caco-2) and 5 × 10^4 cell/mL^−1 (Balb/c 3T3). The cell suspension was transferred to 96-well plates (100 µL/well) and incubated for 24 h before the exposure to the studied compounds. Stock solutions of ligands and metal complexes were prepared in sterile water and diluted with culture medium to obtain a concentration range from 0.1 to 10 µM. The final concentration of sterile water was 0.1% in the medium. […] As a negative control, cultured cells were grown in the absence of studied compounds. Each concentration was tested in six replicates in three independent experiments. Cytotoxicity was assessed after 72 h of exposure of the cells to compounds. The medium was not changed during the incubation time.
This assay is based upon staining the total cellular protein (proliferation). After the incubation, the medium containing the drug was removed, and 100 µL Coomassie brilliant blue R-250 dye was added to each well. The plate was shaken for 10 min. Then, the stain was removed and the cells were rinsed twice with 100 µL of washing solution (glacial acetic acid/ethanol/water, 5:10:85, v:v:v). After that, 100 µL of the desorbing solution (1 M potassium acetate) was added, and plates were shaken again for 10 min. The absorbance was measured at 595 nm in a microplate reader Synergy HTX multi-mode reader (BioTek® Instruments Inc., Winooski, VT, USA) using a blank as a reference. Cytotoxicity was expressed as a percentage of the negative control.
The study was performed in three independent experiments. The obtained results are presented as mean values ± SD (standard deviation). The assessment of the cytotoxicity data used a one-way analysis of variance (ANOVA) followed by Dunnett’s post hoc test, which was applied to determine significance relative to the negative control.

H. pylori ATCC 43504 = test: micro-dilution broth method (MIC, MBC); type: cell-based
K. pneumoniae ATCC 13883 = test: micro-dilution broth method (MIC, MBC); type: cell-based, Klebsiella pneumoniae
[2] = test system: C. perfringens ATCC 13124; test: microbe, parasite or virus in culture; type: cell-based, Clostridium perfringens
Balb/c 3T3 cells [3] = test: LDH leakage assay (membrane integrity), 72 h exposure; type: cell-based, murine; conditions: Balb/c 3T3, LDH, Figure 6
Procedure: as §1
(§2) The integrity of the plasma membrane was assessed through the test of lactate dehydrogenase (LDH) release, which was monitored using the commercially available Cytotoxicity Detection Kit (LDH) (Roche Diagnostics, Warsaw, Poland). […] The absorbance was measured at 492 nm in a microplate reader Synergy HTX multi-mode reader (BioTek® Instruments Inc., Winooski, VT, USA) using a blank as a reference. […]

Caco-2 cells [4] = test: MTT assay (mitochondrial activity), 72 h exposure; type: cell-based, human; conditions: Caco-2, MTT, Figure 6
B. subtilis ATCC 6633 = test: micro-dilution broth method (MIC, MBC); type: cell-based, Bacillus subtilis
Balb/c 3T3 cells [5] = test: TPC assay (total protein content), 72 h exposure; type: cell-based, murine; conditions: Balb/c 3T3, TPC, Figure 6
Procedure: as §1
This assay is based upon staining the total cellular protein (proliferation). […] The absorbance was measured at 595 nm in a microplate reader Synergy HTX multi-mode reader (BioTek® Instruments Inc., Winooski, VT, USA) using a blank as a reference. Cytotoxicity was expressed as a percentage of the negative control. […]

C. jejunii ATCC 33291 = test: micro-dilution broth method (MIC, MBC); type: cell-based, Campylobacter jejunii
Caco-2 cells [6] = test: TPC assay (total protein content), 72 h exposure; type: cell-based, human; conditions: Caco-2, TPC, Figure 6
HepG2 cells [7] = test: LDH leakage assay (membrane integrity), 72 h exposure; type: cell-based, human; conditions: Figure 6
Procedure: as §1, §2

P. acnes ATCC 11827 = test: micro-dilution broth method (MIC, MBC); type: cell-based, Propionibacterium acnes
[8] = F. nucleatum ATCC 25586, value in brackets
[9] = H. pylori ATCC 43504, value in brackets
[10] = K. pneumoniae ATCC 13883, value in brackets
[11] = C. perfringens ATCC 13124, value in brackets
[12] = B. subtilis ATCC 6633, value in brackets
[13] = C. jejunii ATCC 33291, value in brackets
[14] = P. acnes ATCC 11827, value in brackets

**Q.** What does the source list for `Cc1ncc([N+](=O)[O-])n1CCO.Cc1ncc([N+](=O)[O-])n1CCO.Cc1ncc([N+](=O)[O-])n1CCO.Cc1ncc([N+](=O)[O-])n1CCO.O=S(=O)([O-])[O-].[Ag+].[Ag+]` [[Ag(MTZ)2]2SO4]?
**A.** MBC (F. nucleatum ATCC 25586; F. nucleatum ATCC 25586): 0.49 mg/L; MIC (F. nucleatum ATCC 25586; F. nucleatum ATCC 25586): 0.49 mg/L; MBC (F. nucleatum ATCC 25586; [8]): 0.0004 µM/mL; MIC (F. nucleatum ATCC 25586; [8]): 0.0004 µM/mL; lowest concentration with significant (p ≤ 0.05) effect (HepG2 cells [1]): 5.0 µM; MBC (H. pylori ATCC 43504; H. pylori ATCC 43504): 31.3 mg/L; MIC (H. pylori ATCC 43504; H. pylori ATCC 43504): 7.8 mg/L; MBC (H. pylori ATCC 43504; [9]): 0.03 µM/mL; MIC (H. pylori ATCC 43504; [9]): 0.008 µM/mL; MBC (K. pneumoniae ATCC 13883; K. pneumoniae ATCC 13883): 31.3 mg/L; MIC (K. pneumoniae ATCC 13883; K. pneumoniae ATCC 13883): 15.6 mg/L; MBC (K. pneumoniae ATCC 13883; [10]): 0.03 µM/mL; MIC (K. pneumoniae ATCC 13883; [10]): 0.014 µM/mL; MBC ([2]; C. perfringens ATCC 13124): 3.9 mg/L; MIC ([2]; C. perfringens ATCC 13124): 1.95 mg/L; MBC [2, 11]: 0.004 µM/mL; MIC [2, 11]: 0.002 µM/mL; lowest concentration with significant (p ≤ 0.05) effect (Balb/c 3T3 cells [3]): 5.0 µM; lowest concentration with inhibition of mitochondrial activity (Caco-2 cells [4]): 1.0 µM; MBC (B. subtilis ATCC 6633; B. subtilis ATCC 6633): 15.6 mg/L; MIC (B. subtilis ATCC 6633; B. subtilis ATCC 6633): 15.6 mg/L; MBC (B. subtilis ATCC 6633; [12]): 0.014 µM/mL; MIC (B. subtilis ATCC 6633; [12]): 0.014 µM/mL; lowest concentration with significant (p ≤ 0.05) effect (Balb/c 3T3 cells [5]): 5.0 µM; MBC (C. jejunii ATCC 33291; C. jejunii ATCC 33291): 500 mg/L; MBC (C. jejunii ATCC 33291; [13]): 0.46 µM/mL; MIC (C. jejunii ATCC 33291; [13]): 0.23 µM/mL; MIC (C. jejunii ATCC 33291; C. jejunii ATCC 33291, listed as [Ag(MTZ)2]2SO4·5H2O): 250 mg/L; lowest concentration with decreased total protein content (Caco-2 cells [6]): 5.0 µM; lowest concentration with significant (p ≤ 0.05) effect (HepG2 cells [7]): 5.0 µM; MBC (P. acnes ATCC 11827; P. acnes ATCC 11827): 500 mg/L; MBC (P. acnes ATCC 11827; [14]): 0.46 µM/mL; MIC (P. acnes ATCC 11827; [14]): 0.12 µM/mL
